# PubChem BioAssay (NCI)
#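 In this assay, cells in 96-well plates receive the compound at five concentrations for 48 hours. Endpoints are linearly interpolated between the surrounding concentrations. GI50 marks 50% less growth. TGI marks complete inhibition of growth.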
# How the values were obtained:
# Experiment in all cases: inhibition of tumour cell growth, NCI panel, 48 h
# T-47D breast = test system: T-47D breast
# ACHN renal = test system: ACHN renal
# OVCAR-4 ovarian = test system: OVCAR-4 ovarian
# HCC-2998 colon = test system: HCC-2998 colon
# 786-0 renal = test system: 786-0 renal
# KM12 colon = test system: KM12 colon
# SN12C renal = test system: SN12C renal
# RXF 393 renal = test system: RXF 393 renal
# HOP-92 NSCLC = test system: HOP-92 NSCLC
# SNB-75 CNS = test system: SNB-75 CNS
# UO-31 renal = test system: UO-31 renal
# MCF7 breast = test system: MCF7 breast
# M14 melanoma = test system: M14 melanoma
# UACC-257 melanoma = test system: UACC-257 melanoma
# EKVX NSCLC = test system: EKVX NSCLC
# NCI/ADR-RES ovarian = test system: NCI/ADR-RES ovarian
# SNB-19 CNS = test system: SNB-19 CNS
# NCI-H460 lung = test system: NCI-H460 lung
# IGROV1 ovarian = test system: IGROV1 ovarian
# K-562 leukemia = test system: K-562 leukemia
# HT29 colon = test system: HT29 colon
# UACC-62 melanoma = test system: UACC-62 melanoma
# SF-268 CNS = test system: SF-268 CNS
# COLO 205 colon = test system: COLO 205 colon
# SR leukemia = test system: SR leukemia
# NCI-H522 lung = test system: NCI-H522 lung
# RPMI-8226 leukemia = test system: RPMI-8226 leukemia
# SK-MEL-2 melanoma = test system: SK-MEL-2 melanoma
# HCT-15 colon = test system: HCT-15 colon
# SW-620 colon = test system: SW-620 colon
# PC-3 prostate = test system: PC-3 prostate
# A549 NSCLC = test system: A549 NSCLC
# CCRF-CEM leukemia = test system: CCRF-CEM leukemia
# MALME-3M melanoma = test system: MALME-3M melanoma
# OVCAR-5 ovarian = test system: OVCAR-5 ovarian
# CAKI-1 renal = test system: CAKI-1 renal
# TK-10 renal = test system: TK-10 renal
# HCT-116 colon = test system: HCT-116 colon
# HS 578T breast = test system: HS 578T breast
# OVCAR-8 ovarian = test system: OVCAR-8 ovarian
# MOLT-4 leukemia = test system: MOLT-4 leukemia
# SF-295 CNS = test system: SF-295 CNS
# BT-549 breast = test system: BT-549 breast
# SK-MEL-5 melanoma = test system: SK-MEL-5 melanoma
# SK-MEL-28 melanoma = test system: SK-MEL-28 melanoma
# U251 CNS = test system: U251 CNS
# MDA-MB-435 = test system: MDA-MB-435
# DU-145 prostate = test system: DU-145 prostate
# LOX IMVI melanoma = test system: LOX IMVI melanoma
# SF-539 CNS = test system: SF-539 CNS
# SK-OV-3 ovarian = test system: SK-OV-3 ovarian
# MDA-MB-231 breast = test system: MDA-MB-231 breast
# NCI-H23 lung = test system: NCI-H23 lung
# HOP-62 NSCLC = test system: HOP-62 NSCLC
# A498 renal = test system: A498 renal
# HL-60(TB) leukemia = test system: HL-60(TB) leukemia
# OVCAR-3 ovarian = test system: OVCAR-3 ovarian
compound,measurement,setting,value
CN1CCN(Cc2ccc(NC(=O)c3cncc(C#Cc4c(N)ncc5ccccc45)c3)cc2C(F)(F)F)CC1,GI50,T-47D breast,831 nM
same,TGI,T-47D breast,1660 nM
same,GI50,ACHN renal,569 nM
same,TGI,ACHN renal,1170 nM
same,GI50,OVCAR-4 ovarian,309 nM
same,TGI,OVCAR-4 ovarian,1100 nM
same,GI50,HCC-2998 colon,619 nM
same,TGI,HCC-2998 colon,1260 nM
same,GI50,786-0 renal,890 nM
same,TGI,786-0 renal,1660 nM
same,GI50,KM12 colon,5 nM
same,TGI,KM12 colon,618 nM
same,GI50,SN12C renal,627 nM
same,TGI,SN12C renal,1310 nM
same,GI50,RXF 393 renal,708 nM
same,TGI,RXF 393 renal,1390 nM
same,GI50,HOP-92 NSCLC,158 nM
same,TGI,HOP-92 NSCLC,836 nM
same,GI50,SNB-75 CNS,872 nM
same,TGI,SNB-75 CNS,1610 nM
same,GI50,UO-31 renal,541 nM
same,TGI,UO-31 renal,1160 nM
same,GI50,MCF7 breast,198 nM
same,TGI,MCF7 breast,853 nM
same,GI50,M14 melanoma,203 nM
same,TGI,M14 melanoma,885 nM
same,GI50,UACC-257 melanoma,773 nM
same,TGI,UACC-257 melanoma,1600 nM
same,GI50,EKVX NSCLC,572 nM
same,TGI,EKVX NSCLC,1260 nM
same,GI50,NCI/ADR-RES ovarian,945 nM
same,TGI,NCI/ADR-RES ovarian,2210 nM
same,GI50,SNB-19 CNS,924 nM
same,TGI,SNB-19 CNS,1760 nM
same,GI50,NCI-H460 lung,344 nM
same,TGI,NCI-H460 lung,1040 nM
same,GI50,IGROV1 ovarian,373 nM
same,TGI,IGROV1 ovarian,1200 nM
same,GI50,K-562 leukemia,5 nM
same,TGI,K-562 leukemia,715 nM
same,GI50,HT29 colon,180 nM
same,TGI,HT29 colon,1040 nM
same,GI50,UACC-62 melanoma,791 nM
same,TGI,UACC-62 melanoma,1550 nM
same,GI50,SF-268 CNS,723 nM
same,TGI,SF-268 CNS,1560 nM
same,GI50,COLO 205 colon,213 nM
same,TGI,COLO 205 colon,812 nM
same,GI50,SR leukemia,259 nM
same,TGI,SR leukemia,3700 nM
same,GI50,NCI-H522 lung,681 nM
same,TGI,NCI-H522 lung,1530 nM
same,GI50,RPMI-8226 leukemia,835 nM
same,TGI,RPMI-8226 leukemia,2360 nM
same,GI50,SK-MEL-2 melanoma,782 nM
same,TGI,SK-MEL-2 melanoma,1720 nM
same,GI50,HCT-15 colon,293 nM
same,TGI,HCT-15 colon,998 nM
same,GI50,SW-620 colon,185 nM
same,TGI,SW-620 colon,720 nM
same,GI50,PC-3 prostate,687 nM
same,TGI,PC-3 prostate,1730 nM
same,GI50,A549 NSCLC,668 nM
same,TGI,A549 NSCLC,1450 nM
same,GI50,CCRF-CEM leukemia,140 nM
same,TGI,CCRF-CEM leukemia,1470 nM
same,GI50,MALME-3M melanoma,310 nM
same,TGI,MALME-3M melanoma,979 nM
same,GI50,OVCAR-5 ovarian,658 nM
same,TGI,OVCAR-5 ovarian,1450 nM
same,GI50,CAKI-1 renal,765 nM
same,TGI,CAKI-1 renal,1440 nM
same,GI50,TK-10 renal,919 nM
same,TGI,TK-10 renal,1660 nM
same,GI50,HCT-116 colon,257 nM
same,TGI,HCT-116 colon,892 nM
same,GI50,HS 578T breast,640 nM
same,TGI,HS 578T breast,1860 nM
same,GI50,OVCAR-8 ovarian,839 nM
same,TGI,OVCAR-8 ovarian,1910 nM
same,GI50,MOLT-4 leukemia,276 nM
same,TGI,MOLT-4 leukemia,1370 nM
same,GI50,SF-295 CNS,786 nM
same,TGI,SF-295 CNS,1570 nM
same,GI50,BT-549 breast,1620 nM
same,TGI,BT-549 breast,4700 nM
same,GI50,SK-MEL-5 melanoma,719 nM
same,TGI,SK-MEL-5 melanoma,1380 nM
same,GI50,SK-MEL-28 melanoma,767 nM
same,TGI,SK-MEL-28 melanoma,1480 nM
same,GI50,U251 CNS,686 nM
same,TGI,U251 CNS,1410 nM
same,GI50,MDA-MB-435,291 nM
same,TGI,MDA-MB-435,968 nM
same,GI50,DU-145 prostate,716 nM
same,TGI,DU-145 prostate,1390 nM
same,GI50,LOX IMVI melanoma,348 nM
same,TGI,LOX IMVI melanoma,979 nM
same,GI50,SF-539 CNS,532 nM
same,TGI,SF-539 CNS,1130 nM
same,GI50,SK-OV-3 ovarian,1130 nM
same,TGI,SK-OV-3 ovarian,2010 nM
same,GI50,MDA-MB-231 breast,336 nM
same,TGI,MDA-MB-231 breast,1040 nM
same,GI50,NCI-H23 lung,656 nM
same,TGI,NCI-H23 lung,1460 nM
same,GI50,HOP-62 NSCLC,733 nM
same,TGI,HOP-62 NSCLC,1660 nM
same,GI50,A498 renal,676 nM
same,TGI,A498 renal,1350 nM
same,GI50,HL-60(TB) leukemia,160 nM
same,TGI,HL-60(TB) leukemia,781 nM
same,GI50,OVCAR-3 ovarian,817 nM
same,TGI,OVCAR-3 ovarian,1530 nM
